Reference: article PMC6271730, “Bioactive Secondary Metabolites from Phomopsis sp., an Endophytic Fungus from Senna spectabilis” (Molecules, 2014)
Where two headings read alike, the source gives them in different places.

Target: T1, Myeloperoxidase (MPO, EC 1.11.1.7) (Homo sapiens, UniProt P05164)
T1 construct: commercial purified enzyme (Planta Natural Products, Vienna); mature heavy and light chains come from one precursor
Assay: MPO chlorination activity, taurine chloramine / TMB oxidation at […] nm
Type: biochemical

T1 sequence (P05164 165-273): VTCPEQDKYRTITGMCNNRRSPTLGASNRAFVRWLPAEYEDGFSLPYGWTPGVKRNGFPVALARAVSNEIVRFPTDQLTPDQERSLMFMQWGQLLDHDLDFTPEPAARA
T1 sequence (P05164 279-745): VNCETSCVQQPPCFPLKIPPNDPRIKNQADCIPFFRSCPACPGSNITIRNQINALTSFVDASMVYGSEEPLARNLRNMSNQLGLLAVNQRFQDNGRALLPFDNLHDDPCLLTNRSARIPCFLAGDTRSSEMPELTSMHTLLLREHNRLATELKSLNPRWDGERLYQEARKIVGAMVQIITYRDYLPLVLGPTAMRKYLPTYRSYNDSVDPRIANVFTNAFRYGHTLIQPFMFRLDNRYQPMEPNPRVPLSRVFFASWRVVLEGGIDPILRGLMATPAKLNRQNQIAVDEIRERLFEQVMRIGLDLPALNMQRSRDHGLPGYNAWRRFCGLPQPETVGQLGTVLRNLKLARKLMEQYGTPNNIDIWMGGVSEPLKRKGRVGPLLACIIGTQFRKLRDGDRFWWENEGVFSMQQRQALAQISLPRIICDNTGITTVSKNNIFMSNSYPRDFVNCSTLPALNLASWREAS

Row | Compound | IC50 [µM] | IC50 (read-out: IC50) [µM]
1 | Cc1cc(O)cc2oc(=O)c3c(O)cc(O)cc3c12 [compound 5, alternariol] | > 50 | –
2 | COc1cc(O)c2c(=O)oc3cc(O)cc(C)c3c2c1 [compound 4, alternariol monomethyl ether] | – | > 50
